One assay concerns the target Butyrylcholinesterase (Equus caballus, UniProt Q9N1N9).
Another assay concerns the target Acetylcholinesterase (Electrophorus electricus, UniProt O42275).
A short description of assay [1]: Inhibition of amyloid beta (1-42) self-mediated aggregation at 20 uM by thioflavin T fluorescence method.

This note sets out measurements from ChEMBL document CHEMBL1641506, “Design, synthesis and evaluation of novel tacrine-multialkoxybenzene hybrids as dual inhibitors for cholinesterases and amyloid beta aggregation” (Bioorg Med Chem, 2011).

Chain of Butyrylcholinesterase (Q9N1N9 whole entry): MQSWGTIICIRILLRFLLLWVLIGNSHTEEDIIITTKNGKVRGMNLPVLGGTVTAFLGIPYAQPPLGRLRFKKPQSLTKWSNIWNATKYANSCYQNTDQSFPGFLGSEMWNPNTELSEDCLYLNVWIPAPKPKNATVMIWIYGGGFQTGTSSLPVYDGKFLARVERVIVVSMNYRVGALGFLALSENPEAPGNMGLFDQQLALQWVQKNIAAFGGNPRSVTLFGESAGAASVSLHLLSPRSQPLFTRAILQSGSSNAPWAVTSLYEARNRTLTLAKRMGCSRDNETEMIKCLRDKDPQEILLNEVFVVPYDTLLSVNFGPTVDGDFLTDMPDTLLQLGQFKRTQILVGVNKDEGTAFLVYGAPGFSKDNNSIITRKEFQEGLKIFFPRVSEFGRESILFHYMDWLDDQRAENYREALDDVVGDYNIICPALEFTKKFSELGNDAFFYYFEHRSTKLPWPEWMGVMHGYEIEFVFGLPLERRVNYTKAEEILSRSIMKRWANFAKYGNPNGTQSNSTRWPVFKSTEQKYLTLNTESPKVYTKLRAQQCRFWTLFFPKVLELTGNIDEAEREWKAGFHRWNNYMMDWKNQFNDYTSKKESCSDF
Chain of Acetylcholinesterase (O42275 whole entry): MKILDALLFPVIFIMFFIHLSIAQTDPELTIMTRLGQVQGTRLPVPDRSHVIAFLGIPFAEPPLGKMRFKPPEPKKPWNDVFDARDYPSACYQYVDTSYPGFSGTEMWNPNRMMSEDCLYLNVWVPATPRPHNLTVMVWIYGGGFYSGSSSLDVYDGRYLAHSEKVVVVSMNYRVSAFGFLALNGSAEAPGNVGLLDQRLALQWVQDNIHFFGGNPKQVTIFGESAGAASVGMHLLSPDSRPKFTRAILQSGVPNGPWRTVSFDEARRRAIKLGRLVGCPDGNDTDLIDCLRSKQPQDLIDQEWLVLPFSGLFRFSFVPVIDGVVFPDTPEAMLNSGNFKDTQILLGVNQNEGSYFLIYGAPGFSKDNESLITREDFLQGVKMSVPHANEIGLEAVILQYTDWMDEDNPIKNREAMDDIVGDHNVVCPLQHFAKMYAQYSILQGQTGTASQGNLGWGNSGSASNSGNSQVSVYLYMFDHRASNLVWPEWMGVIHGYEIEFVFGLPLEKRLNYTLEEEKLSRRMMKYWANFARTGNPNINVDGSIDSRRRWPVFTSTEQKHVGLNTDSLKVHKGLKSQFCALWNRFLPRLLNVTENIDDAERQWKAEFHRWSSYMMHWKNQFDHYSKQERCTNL
Description for Acetylcholinesterase: Inhibition of electric eel AChE by Ellman's method
Description for Butyrylcholinesterase: Inhibition of equine BChE by Ellman's method

The IC50 is the midpoint of a concentration-inhibition curve. For `COc1ccc(CNCCCCCCNc2c3c(nc4ccccc24)CCCC3)cc1OC`, the IC50 against Butyrylcholinesterase came to 2.68 nM; against Acetylcholinesterase it was 30.9 nM.

In the case of `COc1ccc(CNCCCCCCCNc2c3c(nc4ccccc24)CCCC3)cc1OC`, the IC50 against Butyrylcholinesterase was determined as 5.51 nM; at Acetylcholinesterase it was 24 nM.

With `COc1cc(CNCCCCCCCNc2c3c(nc4ccccc24)CCCC3)cc(OC)c1OC`, the IC50 against Butyrylcholinesterase came to 3.55 nM; at Acetylcholinesterase it was 17.3 nM.

The inhibition is the percentage by which the read-out fell short of the control. Low values mean little suppression, high ones strong suppression. Regarding `COc1cc(CNCCCCCCNc2c3c(nc4ccccc24)CCCC3)cc2c1OCO2`, the inhibition in assay [1] amounted to 67.1%. Besides, the IC50 at Butyrylcholinesterase came to 5.19 nM; on Acetylcholinesterase, 20.5 nM.

For the molecule `COc1cc(CNCCCCNc2c3c(nc4ccccc24)CCCC3)cc2c1OCO2`, in assay [1], the inhibition worked out at 63.8%. For the same molecule, the figures for the IC50 on Butyrylcholinesterase and against Acetylcholinesterase were 46.3 nM and 113 nM, respectively.

Turning to `COc1cc(CNCCCCCCNc2c3c(nc4ccccc24)CCCC3)cc(OC)c1OC`, the results for the concentration for half-maximal inhibition (IC50) against Butyrylcholinesterase and on Acetylcholinesterase were 2.59 nM and 22.4 nM, respectively.

For the molecule `COc1cc(CNCCCCCCCCNc2c3c(nc4ccccc24)CCCC3)cc2c1OCO2`, the inhibition in assay [1] came out at 65.2%. Further, the IC50 on Butyrylcholinesterase stood at 7.94 nM; at Acetylcholinesterase it was 7.98 nM.

Molecule `COc1cc(CNCCCCCNc2c3c(nc4ccccc24)CCCC3)cc2c1OCO2` returned an inhibition in assay [1] of 63.1%. Further, the figures for the IC50 at Butyrylcholinesterase and at Acetylcholinesterase were 29.8 nM and 78.6 nM, respectively.

For the molecule `COc1ccc(CNCCCCCCCCNc2c3c(nc4ccccc24)CCCC3)cc1OC`, the results for the half-inhibitory concentration (IC50) against Butyrylcholinesterase and on Acetylcholinesterase were 5.57 nM and 11.3 nM, respectively.

In assay [1], `COc1cc(CNCCCCCCCNc2c3c(nc4ccccc24)CCCC3)cc2c1OCO2` gave an inhibition of 65%. For the same molecule, the values for the IC50 on Butyrylcholinesterase and at Acetylcholinesterase were 9.73 nM and 18.4 nM, respectively.

As to `COc1cc(CNCCCCCCCCCNc2c3c(nc4ccccc24)CCCC3)cc(OC)c1OC`, the results for the IC50 against Butyrylcholinesterase and on Acetylcholinesterase were 4.73 nM and 20.2 nM, respectively.

On to `COc1cc(CNCCCCCCCCCNc2c3c(nc4ccccc24)CCCC3)cc2c1OCO2`, for which, in assay [1], the inhibition worked out at 68.5%. The IC50 against Butyrylcholinesterase was 11.4 nM; at Acetylcholinesterase, 18.7 nM.

Take `COc1ccc(CNCCCCCCCCCNc2c3c(nc4ccccc24)CCCC3)cc1OC`: the IC50 against Butyrylcholinesterase was 5.67 nM; at Acetylcholinesterase, 25.1 nM.

Take `COc1cc(CNCCCCCCCCNc2c3c(nc4ccccc24)CCCC3)cc(OC)c1OC`: the figures for the IC50 against Butyrylcholinesterase and against Acetylcholinesterase were 3.38 nM and 9.77 nM, respectively.
